Test results taken from PMC9933611 (2023).

Experiments:
[1] = system: Re-engineered ATP-binding aptamer, 4-nt poly-T linker (DNA, aptamer) ACCTGGGGGAGTATTTTTTGCGGAGGAAGGA; assay: fluorescence melting (AF488/BHQ-1); conditions: 10 mM Mg2+; 100 mM Tris HCl, pH 6.5; 3 mM ATP, 50 nM aptamer; temperature of 50% ligand release, not a shift
[2] = system: Re-engineered ATP-binding aptamer, 70-nt poly-T linker (DNA, aptamer) ACCTGGGGGAGTATTTTTTTTTTTTTTTTTTTTTTTTTTTTTTTTTTTTTTTTTTTTTTTTTTTTTTTTTTTTTTTTTTTTTTTTGCGGAGGAAGGA; assay: fluorescence melting (AF488/BHQ-1); conditions: 10 mM Mg2+; 100 mM Tris HCl, pH 6.5; 3 mM ATP, 50 nM aptamer; temperature of 50% ligand release, not a shift

With `Nc1ncnc2c1ncn2[C@@H]1O[C@H](COP(=O)(O)OP(=O)(O)OP(=O)(O)O)[C@@H](O)[C@H]1O` as the compound, how does the T50% [1] read?
The T50% was 59.0 ± 0.5 °C.

And the T50% [2]?
The T50% was 43.2 ± 0.5 °C.
